Columns and labels:
[1] = tested on: NCI-H460 (human lung cancer cells); assay: Anticancer activity, WST-8 viable cell assay, NCI-H460; assay type: cell-based; settings: 48 hours culture, mean of three experiments, read-out: IC50 (50% cell growth inhibitory concentration)
Protocol: (§1) As a control, cisplatin was tested in the same way.
(§2) A549 (human lung cancer cells), NCI-H460 (human lung cancer cells), MKN45 (human gastric cancer cells), NCI-N87 (human gastric cancer cells), A2780 (human ovarian cancer cells), A2780cis (human ovarian cancer cells, cisplatin-resistant cells) were used as cancer cells, and cultured in Roswell Park Memorial Institute medium (RPMI1640) supplemented with 10 volume % fetal bovine serum and 100 Units/mL penicillin and 100 μg/mL streptomycin under 5 volume % carbon dioxide atmosphere by wet incubation at 37° C.
(§3) Cells were washed with phosphate buffered saline (PBS), the cell count was calculated, and then 5×10^4 cells/ml suspension was prepared using the same medium. The suspension was added to a sterile 96-well microplate at a density of 2500 cells/well.
(§4) Thereafter, viable cell counts were evaluated by WST-8 assay. In other words, a solution of water-soluble tetrazolium salt WST-8 was added, and then the cells were cultured in an incubator for 1 hour. Absorbance at 450 nm of water-soluble formazan generated by enzymatic activity of mitochondria in cells was measured with a microplate reader (Spectra Max PLUS; Molecular Devices). This was evaluated as viable cell counts, and 50% cell growth inhibitory concentration (IC50) was calculated. It should be noted that the mean of the values of three experiments performed in the same way was adopted for the calculation of IC50 value.

[2] = tested on: A2780cis (human ovarian cancer cells, cisplatin-resistant cells); assay: Anticancer activity, WST-8 viable cell assay, A2780cis; assay type: cell-based; settings: 48 hours culture, mean of three experiments, read-out: IC50 (50% cell growth inhibitory concentration)
Protocol: as §1, §2, §3, §4

[3] = tested on: NCI-N87 (human gastric cancer cells); assay: Anticancer activity, WST-8 viable cell assay, NCI-N87; assay type: cell-based; settings: 48 hours culture, mean of three experiments, read-out: IC50 (50% cell growth inhibitory concentration)
Protocol: as §1, §2, §3, §4

[4] = tested on: A2780 (human ovarian cancer cells); assay: Anticancer activity, WST-8 viable cell assay, A2780; assay type: cell-based; settings: 48 hours culture, mean of three experiments, read-out: IC50 (50% cell growth inhibitory concentration)
Protocol: as §1, §2, §3, §4

[5] = tested on: A549 (human lung cancer cells); assay: Anticancer activity, WST-8 viable cell assay, A549; assay type: cell-based; settings: 48 hours culture, mean of three experiments, read-out: IC50 (50% cell growth inhibitory concentration)
Protocol: as §1, §2, §3, §4

[6] = tested on: MKN45 (human gastric cancer cells); assay: Anticancer activity, WST-8 viable cell assay, MKN45; assay type: cell-based; settings: 48 hours culture, mean of three experiments, read-out: IC50 (50% cell growth inhibitory concentration)
Protocol: as §1, §2, §3, §4

[7] = Solubility test in aqueous surfactant solution (HPLC); settings: 150 μL surfactant (Tween 80:propylene glycol 2:1) + 850 μL 5% by mass aqueous glucose solution
Protocol: The solubility was determined by the following HPLC analysis.
For the HPLC analyzer, Prominence HPLC system (LC-20AD, Shimadzu Corporation) was used. For the detector, UV detector SPD-20A (Shimadzu Corporation, detection wavelength 249 nm) was used, and for the column, XR-ODS (3 mm i.d.×100 mm, particle diameter 2.2 μm) manufactured by Shimadzu Corporation was used. The mobile phase was methanol:water:TFA=90:10:0.05 (v/v), the column temperature was 40° C., and the flow rate was 0.5 mL/min.
Each of the weighed samples was placed in 150 μL of surfactants, and the mixture was stirred sufficiently. Then, 850 μL of 5% by mass aqueous glucose solution was added, and the mixture was further stirred at room temperature (25° C.). This solution was passed through a 0.2 μm membrane filter, and the filtrate was diluted 50-fold by volume with methanol:water (9:1) to obtain a preparation solution for HPLC analysis.
The prepared samples were transferred to vials, and set in an autosampler. The analysis was performed by injecting each sample by 1 μL.
Based on the relationship between the weight of the weighed sample and the area of the peak in the obtained chromatogram, the solubility of the phosphine transition metal complex was evaluated.

| Molecule | IC50 [1] | IC50 [2] | IC50 [3] | IC50 [4] | IC50 [5] | IC50 [6] | Solubility (25° C.) [7] |
| --- | --- | --- | --- | --- | --- | --- | --- |
| CP(c1ccccc1P(C)C(C)(C)C)C(C)(C)C.CP(c1ccccc1P(C)C(C)(C)C)C(C)(C)C.[Au+].[Cl-] [Example 2, bis[(S,S)-1,2-bis(t-butylmethylphosphino)benzene]gold(I) chloride] | 690 nM | 560 nM | 2100 nM | 1100 nM | 580 nM | 530 nM |  |
| N.N.[Cl][Pt][Cl] [Cisplatin, cisplatin, reference compound] | 3300 nM | 28000 nM | 42000 nM | 2800 nM | 6000 nM | 5200 nM |  |
| CP(c1nc2ccccc2nc1P(C)C(C)(C)C)C(C)(C)C.CP(c1nc2ccccc2nc1P(C)C(C)(C)C)C(C)(C)C.[Au+].[Cl-] (stereo not shown) [Comparative Example 1, bis(2,3-bis(tert-butylmethylphosphino)quinoxaline)gold(I) chloride] |  |  |  |  |  |  | 25.5 mg/mL |
| bis[(R,R)-1,2-bis(t-butylmethylphosphino)benzene]gold(I) chloride [Example 1] | 250 nM | 95 nM | 1400 nM | 280 nM | 66 nM | 250 nM |  |

— patent publication US11180516B2, “Phosphine transition metal complex, method for producing same, and anticancer agent” (Nippon Chemical Industrial Co., Ltd., priority 2018, dated 2021)
